Where a name gives a salt, the structure may show the parent alone.
How the values were obtained:
[1] = test system: Diabrotica virgifera virgifera Leconte, 3rd instar western corn rootworm; assay: Evaluation against 3rd instar western corn rootworm, treated talc/soil jar test, mortality after 5 days; type: in vivo; details: mortality rating 0-9 after 5 days in soil
Description: (§1) Test solutions are prepared by dissolving the test compound in a 35% acetone in water mixture to give a concentration of 10,000 ppm. Subsequent dilutions are made with water as needed.
Diabrotica virgifera virgifera Leconte, 3rd instar western corn rootworm
(§2) One cc of fine talc is placed in a 30 mL wide-mouth screw-top glass jar. One mL of the appropriate acetone test solution is pipetted onto the talc so as to provide 1.25 mg, 0.25 mg or 0.025 mg of active ingredient per jar. The jars are set under a gentle air flow until the acetone is evaporated. The dried talc is loosened, 1 cc of millet seed is added to serve as food for the insects and 25 mL of moist soil is added to each jar. The jar is capped and the contents thoroughly mixed mechanically. Following this, ten 3rd instar rootworms are added to each jar and the jars are loosely capped to allow air exchange for the larvae. The treatments are held for 5 days when mortality counts are made. Missing larvae are presumed dead, since they decompose rapidly and can not be found.

[2] = test system: Diabrotica undecimrunctata howardi, 3rd instar southern corn rootworm; assay: Evaluation against 3rd instar southern corn rootworm, treated talc/soil jar test, mortality after 5 days; type: in vivo, Diabrotica undecimpunctata howardi; details: mortality rating 0-9 after 5 days in soil
Description: as §1
Diabrotica undecimrunctata howardi, 3rd instar southern corn rootworm
as §2

Row | SMILES | Western Corn Rootworm (1 ppm) rating [1] | Western Corn Rootworm (10 ppm) rating [1] | Western Corn Rootworm (50 ppm) rating [1] | Southern Corn Rootworm (1 ppm) rating [2] | Southern Corn Rootworm (10 ppm) rating [2] | Southern Corn Rootworm (50 ppm) rating [2]
1 | CC(C)(C)OC(C)(C)C(=O)Nc1ccc(C(F)(F)F)cc1 [Compound 34, 2-tert-Butoxy-α,α,α-trifluoro-2-methyl-p-propionotoluidide] | 2.0 | 9.0 | 9.0 | – | – | –
2 | CC(C)C(=O)C(C)(C)C(=O)N(C(=O)c1ccc(C(F)(F)F)cc1)c1ccc(C(F)(F)F)cc1 [Compound 6, α,α,α,α′,α′,α′-Hexafluoro-N-(2,2,4-trimethyl-3-oxovaleryl)-p-tolu-p-toluidide] | – | – | – | 2.0 | 9.0 | 9.0
3 | CC(=O)OC(C(C)C)C(C)(C)C(=O)Nc1ccc(Cl)cc1 (stereo not drawn) [Compound 14, 4′-chloro-3-hydroxy-2,2,4-trimethylvaleranilide, acetate (ester)] | – | – | – | 9.0 | 9.0 | 9.0
4 | CC(C)CC(C)C(=O)Nc1ccc(C(F)(F)F)c(OC(F)F)c1 (stereo not drawn) [Compound 32, 3-(Difluoromethoxy)-α,α,α-trifluoro-2,4-dimethyl-p-valerotoiuidide] | 0.0 | 4.0 | 4.0 | – | – | –
5 | CC(C)SC(C)(C)C(=O)Nc1ccc(C(F)(F)F)cc1 [Compound 5, α,α,α-Trifluoro-2-(isopropylthio)-2-methyl-p-propionotoluidide] | – | – | – | 0.0 | 0.0 | 9.0
6 | C#CCOC(C(C)C)C(C)(C)C(=O)Nc1ccc(C(F)(F)F)cc1 (stereo not drawn) [Compound 19, α,α,α-Trifluoro-2,2,4-trimethyl-3-(2-propynyloxy)-p-valerotoluidide] | 0.0 | 9.0 | 9.0 | – | – | –
7 | CCOC(C)(C)C(=O)Nc1ccc(C(F)(F)F)cc1 [Compound 35, 2-Ethoxy-α,α,α-trifluoro-2-methyl-p-propionotoluidide] | 0.0 | 3.0 | 9.0 | – | – | –
8 | CC(C)C(=O)C(C)(Cl)C(=O)Nc1ccc(C(F)(F)F)cc1 (stereo not drawn) [Compound 31] | 0.0 | 0.0 | 4.0 | – | – | –
9 | CC(C)C(=O)C1(C(=O)Nc2ccc(C(F)(F)F)cc2)CC1 [Compound 25, α,α,α-Trifluoro-1-isobutyrylcyclopropanecarboxy-p-toluidide] | 0.0 | 0.0 | 7.0 | – | – | –
10 | CC(=O)OC(C(C)C)C(C)(C)C(=O)Nc1ccc(C(F)(F)F)cc1 (stereo not drawn) [Compound 9, α,α,α-Trifluoro-3-hydroxy-2,2,4-trimethyl-p-valerotoluidide, acetate (ester)] | – | – | – | 0.0 | 8.3 | 8.3
11 | C=CCOC(C(C)C)C(C)(C)C(=O)Nc1ccc(C(F)(F)F)cc1 (stereo not drawn) [Compound 22, 3-(Allyloxy)-α,α,α-trifluoro-2,2,4-trimethyl-p-valerotoluidide] | 0.0 | 9.0 | 9.0 | – | – | –
12 | CC(C)C(O)C(C)(C)C(=O)Nc1ccc(C(F)(F)F)cc1 (stereo not drawn) [Compound 4, α,α,α-Trifluoro-3-hydroxy-2,2,4-trimethyl-p-valerotoluidide] | – | – | – | 0.0 | 0.0 | 9.0
13 | CCOCN(C(=O)C(C)(C)C(=O)C(C)C)c1ccc(C(F)(F)F)cc1 [Compound 15, N-(Ethoxymethyl)-α,α,α-trifluoro-2,2,4-trimethyl-3-oxo-p-valerotoluidide] | 8.0 | 9.0 | 9.0 | – | – | –
14 | CC(C)C(OC=O)C(C)(C)C(=O)Nc1ccc(C(F)(F)F)cc1 (stereo not drawn) [Compound 33, α,α,α-Trifluoro-3-hydroxy-2,2,4-trimethyl-p-valerotoiuidide, formate (ester)] | 0.0 | 5.0 | 9.0 | – | – | –
15 | COC(C(C)C)C(C)(C)C(=O)Nc1ccc(Cl)cc1 (stereo not drawn) [Compound 28, 4′-Chloro-3-methoxy-2,2,4-trimethylvaleranilide] | 0.0 | 5.0 | 9.0 | – | – | –
16 | CC(C)OC(C(C)C)C(C)(C)C(=O)Nc1ccc(C(F)(F)F)cc1 (stereo not drawn) [Compound 23, α,α,α-Trifluoro-3-(isopropoxy)-2,2,4-trimethyl-p-valerotoluidide] | 0.0 | 9.0 | 9.0 | – | – | –
17 | CC(C)C(=O)C(C)(C)C(=O)N(C)c1ccc(C(F)(F)F)cc1 [Compound 36, α,α,α-Trifluoro-N,2,2,4-tetramethyl-3-oxo-p-valerotoluidide] | 2.0 | 9.0 | 9.0 | – | – | –
18 | CC(C)OC(C)(C)C(=O)Nc1ccc(C(F)(F)F)cc1 [Compound 30, α,α,α-Trifluoro-2-isopropoxy-2-methyl-p-propionotoluidide] | 0.0 | 9.0 | 9.0 | – | – | –
19 | CCOC(C(C)C)C(C)(C)C(=O)Nc1ccc(C(F)(F)F)cc1 (stereo not drawn) [Compound 24, 3-Ethoxy-α,α,α-trifluoro-2,2,4-trimethyl-p-valerotoluidide] | 0.0 | 9.0 | 9.0 | – | – | –
20 | CC(C)(C)C(=O)C(C)(C)C(=O)Nc1ccc(C(F)(F)F)cc1 [Compound 21, α,α,α-Trifluoro-2,2,4,4-tetramethyl-3-oxo-p-valerotoluidide] | 0.0 | 9.0 | 9.0 | – | – | –
21 | CC(C)C(OS(C)(=O)=O)C(C)(C)C(=O)Nc1ccc(C(F)(F)F)cc1 (stereo not drawn) [Compound 18, α,α,α-Trifluoro-3-hydroxy-2,2,4-trimethyl-p-valerotoluidide, methanesulfonate (ester)] | 0.0 | 3.0 | 9.0 | – | – | –
22 | COC(C(C)C)C(C)(C)C(=O)Nc1ccc(C(F)(F)F)cc1 (stereo not drawn) [Compound 16, α,α,α-Trifluoro-3-methoxy-2,2,4-trimethyl-p-valerotoluidide] | 0.0 | 9.0 | 9.0 | – | – | –
23 | CC(C)C(OC1CCCC1)C(C)(C)C(=O)Nc1ccc(C(F)(F)F)cc1 (stereo not drawn) [Compound 26, 3-(Cyclopentyloxy)-α,α,α-trifluoro-2,2,4-trimethyl-p-valerotoluidide] | 0.0 | 0.0 | 8.0 | – | – | –
24 | CCOCOC(C(C)C)C(C)(C)C(=O)Nc1ccc(C(F)(F)F)cc1 (stereo not drawn) [Compound 17, 3-(Ethoxymethoxy)-α,α,α-trifluoro-2,2,4-trimethyl-p-valerotoluidide] | 1.0 | 9.0 | 9.0 | – | – | –
25 | CC(C)C(OC(=O)CCl)C(C)(C)C(=O)Nc1ccc(C(F)(F)F)cc1 (stereo not drawn) [Compound 20, 3-Hydroxy-α,α,α-trifluoro-2,2,4-trimethyl-p-valerotoluidide, chloroacetate (ester)] | 0.0 | 5.0 | 9.0 | – | – | –
26 | CC(C)C(=O)C(C)C(=O)Nc1ccc(C(F)(F)F)cc1 (stereo not drawn) [Compound 29, α,α,α-Trifluoro-2,4-dimethyl-3-oxo-p-valerotoluidide] | 0.0 | 0.0 | 8.5 | – | – | –
27 | CCCCCCOC(C(C)C)C(C)(C)C(=O)Nc1ccc(C(F)(F)F)cc1 (stereo not drawn) [Compound 27, α,α,α-Trifluoro-3-(hexyloxy)-2,2,4-trimethyl-p-valerotoluidide] | 0.0 | 0.0 | 9.0 | – | – | –
